Reference: patent publication US8642337B2, “Defined surfaces of self-assembled monolayers and stem cells” (Wisconsin Alumni Research Foundation, priority 2005, dated 2014)
No end group written: not given here.

How the values were obtained:
[1] = tested on: Swiss 3T3 fibroblast cells; experiment: Fibroblast adhesion on patterned SAM chips/arrays; format: cell-based
Description: (§1) General Preparation of the Arrays of Self-Assembled Monolayers (Assembly After Conjugation Strategy): Chromium (1 nm) and then gold (25 nm) were evaporated onto piranha-cleaned glass coverslips (Corning No […], 23 mm squares) using a thermal evaporator (Denton Vacuum, Moorestown, N.J.). Substrates were immediately immersed into a 1 mM solution of fluoro-AT in absolute ethanol. After twenty-four hours, substrates were thoroughly rinsed with ethanol and dried under a stream of nitrogen. Coverslips with fluoro-AT SAM were irradiated with UV-light (1 kW, Hg—Xe Research Arc Lamp, Oriel Instruments (Spectra-Physics, Stratford, Conn.) through a quartz photomask (array of 500 μm or 750 μm squares, 0.067 quartz-chromium mask (Photo Sciences, Torrance, Calif.)) for 1 hour. Irradiated samples were rinsed thoroughly using several repetitive washes with absolute ethanol and distilled water and dried under a steam of nitrogen. Spotting of AT solutions onto the bare gold areas was performed within two hours of the photolithography. Spotting was performed manually using a P2-Pipetman (Gilson) in a humidity chamber. Spotted arrays were stored in the humidity chamber for twelve hours and thoroughly washed using repeated washes with ethanol and water. Rapid flow during washing was used to prevent cross-contamination of array spots.
Cell Culture: A neuroblastoma cell line, SH-SY5Y, was grown in 10% heat-inactivated fetal bovine serum (HI FBS), 45% high glucose Dulbecco's modified Eagle medium (DMEM), 45% Ham's F12 nutritional supplement (F12) with penicillin and streptomycin in an atmosphere of 5% CO2 at 37° C. A fibroblast cell line, Swiss 3T3, was propagated in 10% HI FBS in DMEM. For plating of the cells on the chips, cells were incubated at 37° C. with 5% trypsin/ethylenediamine-tetraacetic acid (EDTA), centrifuged and resuspended in media at 2×10^5 cells/mL and 5×10^5 cells/mL for the fibroblasts and neuroblastomas, respectively. Chips were sterilized by placing each in a single well of a 6-well plate, soaking in 70% ethanol, and drying under UV light for 1 hour. […]

[2] = tested on: SH-SY5Y neuroblastoma cells; experiment: Neuroblastoma adhesion on patterned SAM chips/arrays; format: cell-based
Description: as §1
Cell Culture: A neuroblastoma cell line, SH-SY5Y, was grown in 10% heat-inactivated fetal bovine serum (HI FBS), 45% high glucose Dulbecco's modified Eagle medium (DMEM), 45% Ham's F12 nutritional supplement (F12) with penicillin and streptomycin in an atmosphere of 5% CO2 at 37° C. A fibroblast cell line, Swiss 3T3, was propagated in 10% HI FBS in DMEM. For plating of the cells on the chips, cells were incubated at 37° C. with 5% trypsin/ethylenediamine-tetraacetic acid (EDTA), centrifuged and resuspended in media at 2×10^5 cells/mL and 5×10^5 cells/mL for the fibroblasts and neuroblastomas, respectively. Chips were sterilized by placing each in a single well of a 6-well plate, soaking in 70% ethanol, and drying under UV light for 1 hour. To the individual chips was added 3 mL of the cell suspensions to each well. After 2-5 hours, the media was gently replaced three times and the chips were picked up, transferred to a clean well and 3 mL of media was added. The cells on the chips were typically propagated between 1-7 days. The media was then removed, and the cells were fixed in PFA buffer (2% paraformaldehyde, 350 mM NaCl, 150 mM HEPES, 10 mM CaCl2, pH 7.4) for 20 minutes at 0° C. The cells were washed twice with Dulbecco's phosphate buffered saline and stained (0.1% Coomassie Brilliant Blue in H2O/MeOH/AcOH (50:50:1)) for 5-15 minutes after which the cells were washed twice with water and air dried. […]

[3] = tested on: hES cells; experiment: FACS analysis of ES cells proliferated on large areas presenting synthetic substrates (one-component SAMs); format: cell-based, human; conditions: for Oct4 (% population): FACS, ES cells on one-component SAMs on 22×22 mm gold-coated substrates, after 1 week
Text: Examination of the cell population within an array element provides a semi-quantitative indication of differentiation state of the ES cells. More rigorous analysis involves fluorescence-activated cell sorting (FACS) measurements to identify what population of the cells express specific markers of pluripotent stem cells. Therefore, we proliferated hES cells on gold-coated substrates of larger area (22×22 mm) containing one-component SAMs. FIG. 2a illustrate a representative FACS analysis of an ES cell population grown on a synthetic substrate after 1 week. Table 1 outlines the percentages of Oct4 positive cells obtained from each particular substrate. […] Specifically, we tested hES cell line H9 grown in synthetic media supplemented with high concentrations of basic FGF (referred to as UM100, indicating presence of […] of FGF-2 among the other components). Importantly, these conditions support growth of undifferentiated hES cells on Matrigel®.

[4] = tested on: hES cells (H1B); experiment: Differentiation experiment: Oct-4 immunofluorescence on peptide surface arrays; format: cell-based, human; conditions: cultured on arrays thirteen days
Text: Differentiation Experiment: SIDQVEPYSSTAQ (FGF, SEQ ID NO:8) is known to bind FGF receptor. FGF signaling, in turn, can suppress hES cell differentiation. […] (SEQ ID NO:9) is known to bind BMP-receptor. BMP signaling induces hES cell differentiation. KKQRFRHRNRKG (VHB, SEQ ID NO:10) is a heparin binding motif from vitronectin. Vitronectin supports hES cell adhesion. RGD peptide is known to bind cell surface receptors (integrins) involved in adhesion of various cell types.
hES cells (H1B) were passaged using the protease dispase from Matrigel® to the peptide surface arrays described above containing either BMP/RGD, BMP/VHB, FGF, FGF/RGD or FGF/VHB at various concentrations. hES cells were cultured on the arrays for thirteen days, fixed and stained by immunofluorescence. The cells were stained for a marker of pluripotency, Oct-4 (Green), and counterstained with DAPI (Blue).

[5] = tested on: hES cells (H1 and H9); experiment: hES cell adhesion and growth screen on arrays of SAMs presenting peptides; format: cell-based, human; conditions: for Ability to support ES cell growth: laminin fragment screen on SAM array
Description: Human Embryonic Stem Cell Propagation and Plating: The human ES cell line, H1, was grown on Matrigel®-coated plates in MEF-CM supplemented with 4 ng/mL basic fibroblast growth factor (bFGF). To produce CM, MEFs were seeded at a density of 2.12×10^5 cells/mL and fed medium consisting of DMEM/F12, 20% Knockout™ serum replacement, 2 mM L-glutamine, 1% minimal essential media nonessential amino acids and 0.1 mM β-mercaptoethanol. Both cell lines (H1 and MEF) were maintained at 37° C./5% CO2 with CM collected, and cells fed approximately every 24 hours. Cell suspensions were made by treating with collagenase IV (1 mg/mL) for 10-12 minutes. The cells were scraped from the surface and suspended in CM.
Chips were sterilized as described above. To aid in ES cell patterning, the chips were then soaked in DMEM/F12 with 15% defined FBS for 1-2 hours and washed thoroughly. Then cells were plated on each chip (1-2×10^6 cells/chip) and allowed to incubate overnight. The next morning the chips were moved to fresh wells and fed with CM.
Test for alkaline phosphatase activity: The procedure for staining for alkaline phosphatase activity was essentially identical to the procedure supplied by the manufacturer. After propagation of the ES cells, the media was removed. The reagents in 100 mM Tris pH 8.5 were incubated with the chips for 30 minutes at 25° C. The chips were washed gently for 5 min with Tris buffer and then fixed and dried as usual.
We tested arrays of SAMs presenting a number of short peptides for their ability to support the growth of undifferentiated hES cells. The screen was done with the array presenting square elements of 0.5×0.5 mm (FIG. 1b) or 0.8×0.8 mm size (FIG. 1c). The 0.5×0.5 mm allowed 196 binding elements to be located on a single 22 mm square chip, and in turn the chip can easily fit in one well of a six-well culture plate. The ability of microarrays to localize multiple experiments to same a solution environment is invaluable for applications requiring frequent maintenance. For example, cultures of undifferentiated ES cell require daily changes of growth media. These changes can be easily performed on the entire microarray in one large well of a cell culture plate. For comparison, daily maintenance of experiments, on the same scale, performed in two 96-well plates, while practical, would require either significant human labor or specialized robotic equipment to function in a sterile environment to perform daily maintenance.
Cells grown on Matrigel® were detached using collagenase treatment and were plated on the microarray chip in the presence of CM. After twenty-four hours, media was replaced to remove dead and non-adherent cells. Attached cells were allowed to proliferate on the chip for five to six days and were supplement with fresh conditioned growth media daily. The experiment was stopped once cells reached 100% density in several (but not all) array elements. If continued, the cells in the array elements presenting 100% cell density usually detached, yielding square-shaped sheets of cells floating in solution, while cells in the other elements continued proliferation (not shown). This observation is consistent with those made earlier indicating cell growth variability in multi-component arrays and importance of the balanced duration of the experiment. Once the experiment was stopped, the cells were fixed and stained for markers of hES cell pluripotency. […]

Q: `O=C(O)COCCOCCOCCOCCOCCCCCCCCCCCS` [PEG acid-AT] was tested. Which “Measured cell adhesion versus mole fraction of acid” value ([1]; Swiss 3T3, PEG acid-AT diluted with polyol-AT in spotting solutions) did it give?
A: decreased as the mole fraction of the acid in the spotting solutions approached 0.2

Q: And the “Cell growth on surface” value ([1]; Swiss-3T3, chips with fluoro-AT SAM background and PEG acid-AT squares made by immersion)?
A: dense squares of cells

Q: And the “Measured cell adhesion versus mole fraction of acid” value ([2]; SH-SY5Y, PEG acid-AT diluted with polyol-AT in spotting solutions)?
A: decreased as the mole fraction of the acid in the spotting solutions approached 0.2

Q: What about the “Cell binding to spotted SAM” value ([2]; SH-SY5Y, SAMs formed by spotting AT solutions on bare gold squares) of the same compound?
A: cells affixed to only the expected cytophilic surface

Q: What about the “Cell growth on surface” value ([2]; SH-SY5Y, chips with fluoro-AT SAM background and PEG acid-AT squares made by immersion) of the same compound?
A: dense squares of cells

Q: With “DIRVTLNRL (not fully specified (C-terminus); also: alkane thiol SAM)” as the compound, how does the “Oct4 (% population)” value [3] read?
A: 99.62 % population

Q: For “DITYVRLKF (not fully specified (C-terminus); also: alkane thiol SAM)”, which “Oct4 (% population)” value [3] is on record?
A: 99.78 % population

Q: What about the “Oct4 expression by FACS” value ([3]; hES cell line H9, UM100 media (100 mg/ml of FGF-2), 1 week of culture) of the same compound?
A: high level of Oct4 expression

Q: For “FGF: peptide known to bind FGF receptor (SIDQVEPYSSTAQ)”, which “hES cell self-renewal / Oct-4 expression” value [4] is on record?
A: no longer express Oct-4

Q: Which “Ability to support ES cell growth” value [5] does the source give for GNRWHSIYITRFG here?
A: support ES cell growth

Q: Which results are given for “GRNIAEIIKDI (not fully specified (C-terminus); also: alkane thiol SAM)”?
A: Oct4 (% population) [3]: 98.12 % population; Cell binding to peptide on surface density gradient array ([5]; H1 cells, peptide-AT co-assembled with glucamine-AT): exhibits specific binding

Q: With “GRYVVLPR (not fully specified (C-terminus); also: alkane thiol SAM)” as the compound, how does the “Oct4 (% population)” value [3] read?
A: 98.99 % population

Q: What does the source list for “SDPGYIGSR (not fully specified (C-terminus); also: SAM immobilized) [laminin peptide containing YIGSR recognition motif, presented on SAM in either orientation]”?
A: ES cell adhesion ([5]; N-to-C orientation exposing YIGSR moiety): supports cell adhesion for ES cells, albeit with moderate reproducibility; ES cell adhesion ([5]; switched surface orientation, exposing SDPG-portion, same plating environment): obliterates cell adhesion

Q: For “YIGSR: sequence found in the matrix protein laminin, presented as peptide-AT array element (not fully specified (C-terminus); also: AT array conjugate) [reference compound]”, which “Cell binding to peptide array element” value ([1]; fibroblasts, mixtures of polyol-AT and peptide-AT spotted) is on record?
A: bound modestly

Q: And the “Cell adherence to peptide array element” value ([2]; neuroblastoma cells, mixtures of polyol-AT and peptide-AT spotted)?
A: adhered

Q: And the “Ability to support ES cell growth” value [5]?
A: support ES cell growth
